The values below come from paper PMC12296705, “In Vivo and Bioinformatics Evaluation of Nine Traditional Chinese Medicine Compounds Targeting Acetylcholinesterase and Butyrylcholinesterase Enzymes in Alzheimer’s Disease” (Iranian Journal of Pharmaceutical Research : IJPR, 2025).

Assay [1] has as its target T1, acetylcholinesterase (AChE) (Homo sapiens, UniProt P22303).
T1 construct: purchased bioassay systems, USA IACE-100
The experiment in a line: biochemical. To be noted: for IC50: mean ± SD, n = 3, each in triplicate. As for the experimental part: (§1) The in vitro AChE and BuChE inhibitory effects and selectivity of nine TCM compounds were evaluated using the QuantiChrom^TM AChE inhibitor screening kit (IACE-100, bioassay systems, USA) for AChE inhibition and the BuChE activity kit (catalog # MBS846801, MyBiosource, CA, USA) for BuChE inhibition. […] The QuantiChrom^TM kit was used to assess the activity of AChE and BuChE by recording enzymatic activity at different concentrations of the test compounds and comparing it to activity without inhibitors, followed by plotting dose-response curves. The experimental data were fitted by nonlinear regression analysis to yield IC50 values. The selectivity of the compounds for AChE relative to BuChE was determined by calculating the Selectivity Index (SI) using the formula BuChE IC50 values are divided by AChE IC50 values to obtain SI.

Assay [2] concerns the target T2, butyrylcholinesterase (BuChE) (Homo sapiens, UniProt P06276).
T2 construct: purchased MyBiosource, CA, and USA MBS846801
Kind of assay: biochemical. The procedure:
as §1

Assay [3] deals with T3, Acetylcholinesterase (AChE) (Rattus norvegicus, UniProt P37136).
T3 construct: The tissues were then homogenized, processed for biochemical analysis; from tissue; host or cells: brain of male Wistar rats (cerebellum, cerebral cortex, hippocampus homogenates)
T3 sequence (P37136 32-614): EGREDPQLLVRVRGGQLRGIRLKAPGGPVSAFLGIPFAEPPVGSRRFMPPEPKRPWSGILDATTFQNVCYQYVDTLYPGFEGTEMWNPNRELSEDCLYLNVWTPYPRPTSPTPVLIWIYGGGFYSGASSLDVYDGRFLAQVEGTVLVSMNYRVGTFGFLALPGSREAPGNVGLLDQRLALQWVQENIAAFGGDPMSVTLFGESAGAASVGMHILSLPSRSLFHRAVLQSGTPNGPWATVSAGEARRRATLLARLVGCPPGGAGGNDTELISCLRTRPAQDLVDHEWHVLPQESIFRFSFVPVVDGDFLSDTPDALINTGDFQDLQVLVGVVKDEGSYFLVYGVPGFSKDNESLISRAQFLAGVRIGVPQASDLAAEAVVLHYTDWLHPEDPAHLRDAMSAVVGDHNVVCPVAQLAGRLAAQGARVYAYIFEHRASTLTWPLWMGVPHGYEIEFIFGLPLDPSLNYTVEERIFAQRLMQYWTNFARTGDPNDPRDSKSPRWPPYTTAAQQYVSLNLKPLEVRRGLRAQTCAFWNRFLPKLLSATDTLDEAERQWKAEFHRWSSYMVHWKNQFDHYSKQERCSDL
The experiment in a line: AChE levels in LA-AD rats. The assay is classed as in vivo. To be noted: 1 mg/kg IP for 15 days. As for the experimental part:
(§2) Fifty male Wistar rats (n = 50) were obtained from a certified animal facility, Shenzhen Bay Laboratory (SZBL) Laboratory Animal Platform, China. The rats were acclimatized to the laboratory environment for one week prior to the experiment. During this period, they were kept in standard polypropylene cages for rodents under controlled conditions, with a room temperature of 22°C, relative humidity of 50%, and a 12-hour light-dark cycle, with lights on from 06:00 to 18:00. The rats had ad libitum access to a standard rodent diet and filtered water to ensure optimal health and hydration. Routine monitoring of housing conditions was conducted to ensure compliance with ethical standards. To establish an AD model, the rats underwent intraperitoneal (IP) administration with lead acetate-induced AD (LA-AD, 50 mg/kg) for 15 days to mimic the neurodegenerative features of AD.
Following AD induction, the rats were randomly divided into five groups: (1) Group I (control): DMSO contained in drinking water at a 5% concentration, without neurotoxic effects, in normal rats; (2) group II (LA-AD): The LA-AD rats for 15 days; […]. […]. […]
(§3) A 12-hour fasting period was imposed on the rats immediately after the final dose of treatment to minimize the effect of recent food intake on blood parameters. […] The toxicological effects of the treatment were assessed through analysis of blood lead concentrations. […]

Assay [4] concerns the target T4, butyrylcholinesterase (BuChE) (Rattus norvegicus, UniProt Q9JKC1).
T4 construct: The tissues were then homogenized, processed for biochemical analysis; from tissue; host or cells: brain of male Wistar rats (cerebellum, cerebral cortex, hippocampus homogenates)
The experiment in a line: BuChE levels in LA-AD rats. The assay is classed as in vivo. The conditions noted are these: 1 mg/kg IP for 15 days. The procedure:
as §2
Following AD induction, the rats were randomly divided into five groups: (1) Group I (control): DMSO contained in drinking water at a 5% concentration, without neurotoxic effects, in normal rats; (2) group II (LA-AD): The LA-AD rats for 15 days; […]. […]
as §3

Assay [5] deals with lead acetate-induced AD (LA-AD) rats. Kind of assay: Lipid peroxidation (MDA) in brain tissue of LA-AD rats. The assay is classed as in vivo, rat. The conditions noted are these: 1 mg/kg IP for 15 days, compared to the LA-AD group.
Protocol: The rats were acclimatized to the laboratory environment for one week prior to the experiment. During this period, they were kept in standard polypropylene cages for rodents under controlled conditions, with a room temperature of 22°C, relative humidity of 50%, and a 12-hour light-dark cycle, with lights on from 06:00 to 18:00. […] Routine monitoring of housing conditions was conducted to ensure compliance with ethical standards. To establish an AD model, the rats underwent intraperitoneal (IP) administration with lead acetate-induced AD (LA-AD, 50 mg/kg) for 15 days to mimic the neurodegenerative features of AD.
Following 28 days of exposure, the rats were euthanized by cervical decapitation, and their brains were removed to minimize tissue damage. The brains were dissected into specific regions, including the cerebellum and cerebral cortex, for deeper analysis. The cerebellum, cerebral cortex, and hippocampus were isolated in sodium chloride solution and washed with ice-cold solution. The tissues were then homogenized, processed for biochemical analysis, and submerged in ice-cold 0.1 M phosphate buffer. […]
The reaction mixtures were then transferred into centrifuge tubes and centrifuged at 3800 × g for 25 minutes. […] After cooling, the absorbance of the samples was measured at 530 nm using a spectrophotometer (BIOBASE BK-UV1800PC, China).
The test system is the same in assay [6]. Kind of assay: Glutathione (GSH) content in brain tissue of LA-AD rats. In kind it is in vivo, rat. To be noted: 1 mg/kg IP for 15 days, compared to the LA-AD group.
Protocol: Fifty male Wistar rats (n = 50) were obtained from a certified animal facility, Shenzhen Bay Laboratory (SZBL) Laboratory Animal Platform, China. The rats were acclimatized to the laboratory environment for one week prior to the experiment. During this period, they were kept in standard polypropylene cages for rodents under controlled conditions, with a room temperature of 22°C, relative humidity of 50%, and a 12-hour light-dark cycle, with lights on from 06:00 to 18:00. […] Routine monitoring of housing conditions was conducted to ensure compliance with ethical standards. To establish an AD model, the rats underwent intraperitoneal (IP) administration with lead acetate-induced AD (LA-AD, 50 mg/kg) for 15 days to mimic the neurodegenerative features of AD.
A 12-hour fasting period was imposed on the rats immediately after the final dose of treatment to minimize the effect of recent food intake on blood parameters. […] Following 28 days of exposure, the rats were euthanized by cervical decapitation, and their brains were removed to minimize tissue damage. The brains were dissected into specific regions, including the cerebellum and cerebral cortex, for deeper analysis. […]
Glutathione (GSH) levels in cerebral tissue were quantified by extracting proteins from the homogenate. […]
The mark [7] stands for this setting: BuChE IC50 divided by AChE IC50.
[8] abbreviates: mean ± SD, n = 3, each in triplicate, read-out: IC50 BuChE.

Read-outs that look alike come from different tables or passages of the source.

T2 sequence (P06276 29-602): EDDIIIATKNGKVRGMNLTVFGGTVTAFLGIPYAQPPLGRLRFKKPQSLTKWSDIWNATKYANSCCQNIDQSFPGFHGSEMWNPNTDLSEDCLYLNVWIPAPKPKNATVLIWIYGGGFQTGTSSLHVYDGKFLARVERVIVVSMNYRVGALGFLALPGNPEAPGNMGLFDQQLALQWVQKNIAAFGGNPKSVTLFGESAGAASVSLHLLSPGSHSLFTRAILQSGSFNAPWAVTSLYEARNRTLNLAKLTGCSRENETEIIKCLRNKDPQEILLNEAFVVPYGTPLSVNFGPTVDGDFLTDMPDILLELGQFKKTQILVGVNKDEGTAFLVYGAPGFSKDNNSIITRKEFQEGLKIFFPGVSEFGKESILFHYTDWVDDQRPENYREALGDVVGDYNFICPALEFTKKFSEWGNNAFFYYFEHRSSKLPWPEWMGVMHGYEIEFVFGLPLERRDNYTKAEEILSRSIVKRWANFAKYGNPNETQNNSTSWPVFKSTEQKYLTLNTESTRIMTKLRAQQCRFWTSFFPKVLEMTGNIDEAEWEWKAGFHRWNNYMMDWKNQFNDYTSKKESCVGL
T1 sequence (P22303 32-614): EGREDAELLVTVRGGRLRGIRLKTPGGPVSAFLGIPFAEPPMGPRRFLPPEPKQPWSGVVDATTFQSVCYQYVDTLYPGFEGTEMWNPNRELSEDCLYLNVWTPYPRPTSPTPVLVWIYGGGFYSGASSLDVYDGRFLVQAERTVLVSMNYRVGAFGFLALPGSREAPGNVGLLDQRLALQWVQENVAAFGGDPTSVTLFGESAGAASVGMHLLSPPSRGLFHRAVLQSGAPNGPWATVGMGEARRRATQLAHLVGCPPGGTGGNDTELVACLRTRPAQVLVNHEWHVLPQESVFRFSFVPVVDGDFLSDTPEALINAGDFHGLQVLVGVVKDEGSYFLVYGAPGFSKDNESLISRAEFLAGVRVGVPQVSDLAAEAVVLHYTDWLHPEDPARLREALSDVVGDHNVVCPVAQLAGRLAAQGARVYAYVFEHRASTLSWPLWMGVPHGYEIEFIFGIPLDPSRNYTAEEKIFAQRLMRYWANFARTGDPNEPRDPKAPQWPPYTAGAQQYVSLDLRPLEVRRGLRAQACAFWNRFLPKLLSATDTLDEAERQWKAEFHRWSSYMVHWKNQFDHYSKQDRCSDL
T4 sequence (Q9JKC1 24-597): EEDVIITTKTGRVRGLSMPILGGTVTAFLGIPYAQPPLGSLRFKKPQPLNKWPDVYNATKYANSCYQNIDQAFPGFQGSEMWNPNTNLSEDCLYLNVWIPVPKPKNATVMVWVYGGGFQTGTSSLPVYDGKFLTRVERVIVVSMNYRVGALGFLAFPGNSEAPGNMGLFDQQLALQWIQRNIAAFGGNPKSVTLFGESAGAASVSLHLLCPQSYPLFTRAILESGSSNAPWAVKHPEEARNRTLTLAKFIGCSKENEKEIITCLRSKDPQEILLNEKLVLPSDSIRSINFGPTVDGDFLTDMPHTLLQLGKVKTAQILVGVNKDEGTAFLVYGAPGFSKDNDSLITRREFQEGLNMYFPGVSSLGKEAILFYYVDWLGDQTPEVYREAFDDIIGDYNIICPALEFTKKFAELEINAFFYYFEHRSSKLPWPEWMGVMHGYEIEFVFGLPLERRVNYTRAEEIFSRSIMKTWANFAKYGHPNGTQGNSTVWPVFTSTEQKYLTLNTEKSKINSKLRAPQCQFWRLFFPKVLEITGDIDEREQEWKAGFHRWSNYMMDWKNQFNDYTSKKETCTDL

For the molecule `CC1(C)C=Cc2c(cc3occ(-c4ccc(O)cc4)c(=O)c3c2O)O1` [Alpinumisoflavone], the “BuChE/AChE Selectivity” value in assay [1] (setting [7]) is 0.32. In addition, the IC50 in assay [1] came to 90.3 ± 4.13 nM; in assay [2] (setting [8]), 29.2 ± 1.4 nM.

With `C=C1CCC[C@]2(C)C[C@]3(O)OC(=O)C(C)=C3C[C@@H]12` [Atractylenolide III], in assay [1], the “BuChE/AChE Selectivity” value was 0.38 and half-maximal inhibition (IC50) required 83.1 ± 2.43 nM. In addition, the IC50 in assay [2] stood at 31.3 ± 2.62 nM.

As for `Cc1cc(=O)cc2c3c1CC1C4OC(=O)C(CC2)(C(C)C4O)C31` (stereo not shown) [Hainanolidol], the AChE activity result in assay [3] was “significantly decreased”. Further, in assay [4], the BuChE activity result is on record as “significantly decreased”. In addition, the “Malondialdehyde (MDA) levels” value in assay [5] is recorded as “significantly reduced”. Also, the IC50 amounted to 44.3 nM in assay [1] and 12.3 nM in assay [2] (setting [8]). Moreover, in assay [6], the “Glutathione (GSH) levels” value is on record as “significantly increased”.

For `COC(=O)C1=CO[C@@H](O[C@@H]2O[C@H](CO)[C@@H](O)[C@H](O)[C@H]2O)[C@@H]2[C@H](C)O[C@@H](O)C[C@H]12` [Morroniside], the IC50 in assay [1] worked out at 41.6 ± 2.02 nM; in assay [2] (setting [8]) it was 18.2 ± 2.12 nM.

`COc1cc2c3c(c1O)-c1c(ccc(OC)c1OC)C[C@@H]3NCC2` [Norcorydine]: the figures for the IC50 in assay [1] and in assay [2] were 87.2 ± 4.12 nM and 102 ± 3.13 nM, respectively.

For the molecule `O=c1cc(-c2ccccc2)oc2c(O)c(O)cc(O)c12` [Norwogonin], the AChE activity entry in assay [3] was “significantly decreased”. In assay [4], the BuChE activity entry is “significantly decreased”. Also, the “Malondialdehyde (MDA) levels” value in assay [5] was “significantly reduced”. Besides, the IC50 came out at 33.6 nM in assay [1] and 15.2 nM in assay [2] (setting [8]). For the same molecule, the “Glutathione (GSH) levels” value in assay [6] was “significantly increased”.

On to `COc1cc2c(c(OC)c1OC)-c1c(cc3c(c1OC)OCO3)CC(C)C(C)C2` (stereo not shown) [Schisandrin B], for which the values for the 50% inhibitory concentration (IC50) in assay [1] and in assay [2] were 90.4 ± 4.41 nM and 82.3 ± 1.21 nM, respectively.

For the molecule Asiaticoside, in assay [1] (setting [7]), the “BuChE/AChE Selectivity” value is 1.17.

A word on the IC50: it is the midpoint of a concentration-inhibition curve.
